Laboratory results from paper PMC6429200, “Synthesis and Broad Antiviral Activity of Novel 2-aryl-isoindolin-1-ones towards Diverse Enterovirus A71 Clinical Isolates” (Molecules, 2019).
Read-outs that look alike come from different tables or passages of the source.

Key:
[1] = tested on: four EV-A71 strains (BrCr, H, Shenzhen98, Jiangsu52); test: CPE inhibition assay, summary over four EV-A71 strains; type: cell-based, Enterovirus 71 (EV-A71); conditions: for EC50: Enterovirus A, EVA71, Vero, read-out: EC50 towards four EV-A71 strains
Protocol: (§1) An in-vitro antiviral assay was established using the Africa monkey kidney cell line Vero which was infected with different EV-A71 clinical isolates (BrCr, H, Shenzhen98 and Jiangsu52). A total of 24 synthetic compounds were initially screened in such an assay to determine their inhibitory effect on virus replication at 3-fold diluted concentrations serial (400~0.18 μM). The 50% effective concentration (EC50) of each compound was calculated according to its inhibitory rate values with the Reed–Muench method. The 50% cytotoxic concentration (CC50) was defined as the concentration that inhibited 50% cellular growth in comparison with the controls. The selectivity index (SI) was calculated as CC50/EC50. […] Generally, the EV-A71 H strain was less sensitive to most of the active compounds as compared to the other virus strains.
(§2) The anti-EV-A71 activity of compounds was determined by the CPE inhibition method. Briefly, cells (3 × 10^4 cells/well) were plated into 96-well culture plates for incubation for 24 h. The medium was then removed and cells were infected with EV-A71 with 100TCID50 (50% tissue culture infective doses) in serum-free medium for 1 h at 37 °C. Then, the unbound viruses were removed and various concentrations of compounds were supplemented and incubated for another 48 h. The EC50 was determined by the Reed–Muench method. The selectivity index was calculated as the ratio of CC50/EC50 [15].

[2] = tested on: EV-A71 strain Jiangsu52 (JS52); test: CPE inhibition assay for anti-EV-A71 in Vero cells, Jiangsu52 strain; type: cell-based, Enterovirus 71 (EV-A71); conditions: for Jiangsu52 SI: CC50/EC50; for EC50: Enterovirus A, EVA71, Vero cells, 100TCID50, 48 h
Protocol: as §1
(§3) EV-A71 strain ShenZhen98 (SZ98) was isolated from the throat swab sample of an HFMD case which occurred in 1998 in China. This was kindly provided by Dr. Qi Jin, Institute of Pathogen Biology, Chinese Academy of Medical Science and Peking Union Medical School, Beijing, China. EV-A71 strains BrCr (VR-1775) and H (VR-1432) were purchased from the ATCC. The EV-A71 strain JS52 was a kind gift from Dr. Xiangzhong Ye, Beijing Wantai Biological Pharmacy Enterprise Co., Ltd. EV-A71 were all passaged in Vero cells.
as §2

[3] = tested on: EV-A71 strain ShenZhen98 (SZ98); test: CPE inhibition assay for anti-EV-A71 in Vero cells, Shenzhen98 strain; type: cell-based, Enterovirus 71 (EV-A71); conditions: for Shenzhen98 SI: CC50/EC50; for EC50: Enterovirus A, EVA71, Vero cells, 100TCID50, 48 h
Protocol: as §1, §3, §2

EV-A71 strain BrCr = test: CPE inhibition assay for anti-EV-A71 in Vero cells, BrCr strain; type: cell-based, Enterovirus 71 (EV-A71); conditions: for BrCr SI: CC50/EC50; for EC50: Enterovirus A, EVA71, Vero cells, 100TCID50, 48 h
Protocol: as §1, §3, §2

EV-A71 strain H = test: CPE inhibition assay for anti-EV-A71 in Vero cells, H strain; type: cell-based, Enterovirus 71 (EV-A71); conditions: for H SI: CC50/EC50; for EC50: Enterovirus A, EVA71, Vero cells, 100TCID50, 48 h
Protocol: as §1, §3, §2

[4] = Cytotoxicity assay (CPE) on Vero cells; type: cell-based; conditions: African green monkey
Protocol: as §1
African green monkey kidney (Vero) cells were purchased from the American Type Culture Collection (ATCC) and were cultured in minimum essential medium (MEM) supplemented with 10% fetal bovine serum (FBS) (GIBCO) and antibiotics (100 U/mL penicillin and […] streptomycin) at 37 °C in a 5% CO2 incubator.
The cytotoxic effects of compounds on Vero cells were detected by the cytopathic effect (CPE) assay. Briefly, cells (3 × 10^4 cells/well) were seeded into 96-well culture plates and incubated overnight. Then, the medium was removed and different concentrations of compounds were applied in triplicate. After 3 days of incubation, the CC50 was defined as the concentration that inhibited 50% cellular growth in comparison with the untreated controls, as calculated by the Reed–Muench method.

EV71 = tested on: EV71; design: method as in PMID 23519203; conditions: cited from earlier work
[5] = Vero cells, 3 days of incubation, Reed–Muench, read-out: CC50

SMILES | SI towards four EV-A71 strains ([1]; CC50/EC50, range over four strains) | EC50 [1] | EC50 fold higher than pirodavir ([1]; relative to reference compound pirodavir) | Jiangsu52 SI [2] | EC50 [2] | Shenzhen98 SI [3] | EC50 [3] | BrCr SI (EV-A71 strain BrCr) | EC50 (EV-A71 strain BrCr) | H SI (EV-A71 strain H) | EC50 (EV-A71 strain H) | CC50 at 3 days [4, 5] | fold loss in activity ([1]; against four in vitro models, relative to A3) | CC50 at 3 days [4] | SI (EV71; Figure 1) | IC50 (EV71; Figure 1, multiple virus strains, read-out: Anti-EV71 IC50) | anti-EV-A71 activity (EV71; against multiple virus strains)
O=C1c2ccccc2CN1c1ccc(Br)cc1 [Compound A4, 2-(4-bromophenyl)isoindolin-1-one] | 98–199 | 1.23 to 1.76 µM | 2–4 fold | 131 | 1.32 ± 0.22 µM | 98 | 1.76 ± 0.15 µM | 140 | 1.23 ± 0.28 µM | 98 | 1.76 ± 0.19 µM | 173 ± 34 µM |  |  |  |  | 
CCOC(=O)c1ccc(OCCC2CCN(c3ccc(C)nn3)CC2)cc1 [pirodavir, reference compound] |  | 0.38 to 0.76 µM |  | 54 | 0.62 ± 0.1 µM | 67 | 0.5 ± 0.06 µM | 88 | 0.38 ± 0.04 µM | 44 | 0.76 ± 0.09 µM | 33.3 µM |  |  |  |  | 
O=C1c2cc(Nc3ccccc3)ccc2CN1c1ccc(Cl)cc1 [Compound D2] |  |  |  | / (/ represents selectivity index (SI) value of less than 10) | 15.1 ± 3.23 µM | / (/ represents selectivity index (SI) value of less than 10) | 19.8 ± 3.4 µM | / (/ represents selectivity index (SI) value of less than 10) | 19.6 ± 3.77 µM | / (/ represents selectivity index (SI) value of less than 10) | 19.6 ± 3.77 µM | 115 µM | 10 fold |  |  |  | 
CN1CCN(c2ccc3c(c2)C(=O)N(c2ccc(Cl)cc2)C3)CC1 [Compound D3, 6-(4-methylpiperazin)-2-(4-chlorophenyl)-isoindolin-1-one] |  | < 10 µM |  | 32 | 1.29 ± 0.33 µM | 11 | 3.73 ± 0.78 µM | 16 | 2.71 ± 0.35 µM | 20 | 2.09 ± 0.54 µM |  |  | 42.4 ± 5.47 µM |  |  | 
COc1ccc(N2Cc3ccccc3C2=O)cc1 [Compound A7, 2-(4-methoxyphenyl)isoindolin-1-one] |  | < 10 µM |  | 40 | 7.92 ± 0.86 µM | 44 | 7.27 ± 0.86 µM | 44 | 7.27 ± 0.86 µM | 34 | 9.35 ± 1.44 µM | 318 ± 54.5 µM |  |  |  |  | 
CCCNc1ccc2c(c1)C(=O)N(c1ccc(OC)cc1)C2 [Compound B1, 2-(4-methoxyphenyl)-6-(propylamino)isoindolin-1-one] |  | < 10 µM |  | 43 | 1.59 ± 0.43 µM | 43 | 1.59 ± 0.35 µM | 43 | 1.59 ± 0.35 µM | 13 | 5.41 ± 0.63 µM | 68.4 ± 5.72 µM |  |  |  |  | 
Cc1ccc(N2Cc3cc(N)ccc3C2=O)cc1 [Compound 6, 5-amino-2-(p-tolyl)isoindolin-1-one] |  | < 10 µM |  | 91 | 1.89 ± 0.32 µM | 86 | 2 ± 0.25 µM | 91 | 1.89 ± 0.32 µM | 82 | 2.11 ± 0.23 µM | 173 ± 34 µM |  |  |  |  | 
COc1ccc(C(=O)Nc2ccc(Br)cc2)cc1N [N-pheylbenzoamide hit, 3-amino-N-(4-bromophenyl)-4-methoxybenzamide] |  |  |  |  |  |  |  |  |  |  |  |  |  |  | 51-110 | 5.7 to 12 µM | moderate anti-EV-A71 activity
O=C1c2ccccc2CN1c1ccccc1 [Compound A1, 22-phenylisoindolin-1-one] |  |  |  | 47 | 7.87 ± 0.91 µM | 47 | 7.87 ± 0.91 µM | 47 | 7.87 ± 0.91 µM | 13 | 28.7 ± 4.07 µM | 370 ± 39.8 µM |  |  |  |  | 
